The record followed here is PMC4758734, “Purification and Characterization of Glutaminase Free Asparaginase from Enterobacter cloacae: In-Vitro Evaluation of Cytotoxic Potential against Human Myeloid Leukemia HL-60 Cells” (PLoS ONE, 2016).

This assay concerns T1, glutaminase free asparaginase from Enterobacter cloacae.
T1 construct: gene ansB; native, purified from culture supernatant (ammonium sulphate, DEAE-cellulose, Sephadex G-100); EC 3.5.1.1
As to the kind of experiment: Nesslerization (ammonia release), Lineweaver-Burk plot. It is filed as biochemical. To be noted: 0.05 M phosphate buffer pH 7.5, 37°C; L-asparagine 0.2–24 mM.

Regarding `NC(=O)C[C@H](N)C(=O)O` [L-asparagine], the Km is 1580 µM.

What is called Km is the concentration of substrate that gives half-maximal velocity.
